Here are results for 28 compounds from patent US11370798B2 (Vertex Pharmaceuticals Incorporated, priority 2012, dated 2022).

The experiment has as its system HCT116 colorectal cancer cells. Kind of experiment: Cisplatin sensitization assay (96 h cell viability MTS).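 Note: Test-compound concentration that lowers the Cisplatin IC50 by a set fold.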 Type of experiment: cell-based. The following applies: compound and Cisplatin added simultaneously, Cisplatin sensitization value. The essentials:
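Compound and cisplatin added together as a full matrix of 2-fold serial dilutions from a top final concentration of 10 μM; cells incubated 96 h at 37° C, 5% CO2. Viability then read by MTS after 1 h further incubation; sensitization value reported in μM bins.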
Take `CC(C)N1CCC(C(=O)N2CCN(c3c(F)cncc3NC(=O)c3c(N)nn4cc(F)cnc34)CC2)C1` (stereo not shown) [I-N-206, 2-amino-6-fluoro-N-(5-fluoro-4-(4-(1-isopropylpyrrolidine-3-carbonyl)piperazin-1-yl)pyridin-3-yl)pyrazolo[1,5-a]pyrimidine-3-carboxamide]: the “Cisplatin Sensitization Assay” value is “+++ (Cisplatin sensitization value of <0.02 μM)”.

On to `Nc1nn2cc(F)cnc2c1C(=O)Nc1cnccc1-n1ccnc1` [I-N-7, N-(4-(1H-imidazol-1-yl)pyridin-3-yl)-2-amino-6-fluoropyrazolo[1,5-a]pyrimidine-3-carboxamide], for which the “Cisplatin Sensitization Assay” value is “++ (Cisplatin sensitization value>0.02 μM but <0.2 μM)”.

For `CC1(O)CN(C(=O)C2CCN(c3c(F)cncc3NC(=O)c3c(N)nn4cc(F)cnc34)CC2)C1` [I-G-63, 2-amino-6-fluoro-N-(5-fluoro-4-(4-(3-hydroxy-3-methylazetidine-1-carbonyl)piperidin-1-yl)pyridin-3-yl)pyrazolo[1,5-a]pyrimidine-3-carboxamide], the “Cisplatin Sensitization Assay” value is listed as “+++ (Cisplatin sensitization value of <0.02 μM)”.

Consider `Cc1nc(F)ccc1-c1ccncc1NC(=O)c1c(N)nn2cc(F)cnc12` [I-C-34, 2-amino-6-fluoro-N-(6-fluoro-2-methyl-[3,4′-bipyridin]-3′-yl)pyrazolo[1,5-a]pyrimidine-3-carboxamide], for which the “Cisplatin Sensitization Assay” value is “+++ (Cisplatin sensitization value of <0.02 μM)”.

Turning to `CN1CCC(S(=O)(=O)N2CCN(c3ccncc3NC(=O)c3c(N)nn4cc(F)cnc34)CC2)CC1` [I-N-188, 2-amino-6-fluoro-N-(4-(4-((1-methylpiperidin-4-yl)sulfonyl)piperazin-1-yl)pyridin-3-yl)pyrazolo[1,5-a]pyrimidine-3-carboxamide], the “Cisplatin Sensitization Assay” value is “+++ (Cisplatin sensitization value of <0.02 μM)”.

With `COC1(C)CN(C(=O)C2CCN(c3ccncc3NC(=O)c3c(N)nn4cc(F)cnc34)CC2)C1` [I-G-79, 2-amino-6-fluoro-N-(4-(4-(3-methoxy-3-methylazetidine-1-carbonyl)piperidin-1-yl)pyridin-3-yl)pyrazolo[1,5-a]pyrimidine-3-carboxamide], the “Cisplatin Sensitization Assay” value is recorded as “+++ (Cisplatin sensitization value of <0.02 μM)”.

Consider `CN1CCC(NC(=O)C2CCN(c3c(F)cncc3NC(=O)c3c(N)nn4cc(F)cnc34)CC2)CC1` [I-G-20, 2-amino-6-fluoro-N-(5-fluoro-4-(4-((1-methylpiperidin-4-yl)carbamoyl)piperidin-1-yl)pyridin-3-yl)pyrazolo[1,5-a]pyrimidine-3-carboxamide], for which the “Cisplatin Sensitization Assay” value was “+ (Cisplatin sensitization value>0.2 μM but <5 μM)”.

Consider `COC1CCN(c2ccncc2NC(=O)c2c(N)nn3cc(Cl)cnc23)CC1` [I-N-73, 2-amino-6-chloro-N-(4-(4-methoxypiperidin-1-yl)pyridin-3-yl)pyrazolo[1,5-a]pyrimidine-3-carboxamide], for which the “Cisplatin Sensitization Assay” value is “+++ (Cisplatin sensitization value of <0.02 μM)”.

On to `CN1CCN(c2c(Cl)cncc2NC(=O)c2c(N)nn3cc(F)cnc23)CC1` [I-N-85, 2-amino-N-(5-chloro-4-(4-methylpiperazin-1-yl)pyridin-3-yl)-6-fluoropyrazolo[1,5-a]pyrimidine-3-carboxamide], for which the “Cisplatin Sensitization Assay” value is reported as “++ (Cisplatin sensitization value>0.02 μM but <0.2 μM)”.

Regarding `Nc1nn2cc(F)cnc2c1C(=O)Nc1cnccc1N1CCC(c2nnco2)CC1` [I-N-268, N-(4-(4-(1,3,4-oxadiazol-2-yl)piperidin-1-yl)pyridin-3-yl)-2-amino-6-fluoropyrazolo[1,5-a]pyrimidine-3-carboxamide], the “Cisplatin Sensitization Assay” value is given as “+++ (Cisplatin sensitization value of <0.02 μM)”.

Consider `CN(C)C1CN(C2CCN(c3ccncc3NC(=O)c3c(N)nn4cc(Cl)cnc34)CC2)C1` [I-N-94, 2-amino-6-chloro-N-(4-(4-(3-(dimethylamino)azetidin-1-yl)piperidin-1-yl)pyridin-3-yl)pyrazolo[1,5-a]pyrimidine-3-carboxamide], for which the “Cisplatin Sensitization Assay” value is “+++ (Cisplatin sensitization value of <0.02 μM)”.

`Nc1nn2cc(F)cnc2c1C(=O)Nc1cncc(F)c1N1CCC(C(=O)N2CCC(N3CCCCC3)C2)CC1` (stereo not shown) [I-G-64, 2-amino-6-fluoro-N-(5-fluoro-4-(4-(3-(piperidin-1-yl)pyrrolidine-1-carbonyl)piperidin-1-yl)pyridin-3-yl)pyrazolo[1,5-a]pyrimidine-3-carboxamide]: the “Cisplatin Sensitization Assay” value is given as “+++ (Cisplatin sensitization value of <0.02 μM)”.

With `N#CCc1cnc2c(C(=O)Nc3cnccc3N3CCOCC3)c(N)nn2c1` [I-N-81, 2-amino-6-(cyanomethyl)-N-(4-morpholinopyridin-3-yl)pyrazolo[1,5-a]pyrimidine-3-carboxamide], the “Cisplatin Sensitization Assay” value is “+++ (Cisplatin sensitization value of <0.02 μM)”.

Turning to `COC1CN(C(=O)C2CCN(c3ccncc3NC(=O)c3c(N)nn4cc(F)cnc34)CC2)C1` [I-G-78, 2-amino-6-fluoro-N-(4-(4-(3-methoxyazetidine-1-carbonyl)piperidin-1-yl)pyridin-3-yl)pyrazolo[1,5-a]pyrimidine-3-carboxamide], the “Cisplatin Sensitization Assay” value was “+++ (Cisplatin sensitization value of <0.02 μM)”.

Regarding `COCCN1CCC[C@H](Oc2ccncc2NC(=O)c2c(N)nn3cc(Cl)cnc23)C1` [I-O-67, (S)-2-amino-6-chloro-N-(4-((1-(2-methoxyethyl)piperidin-3-yl)oxy)pyridin-3-yl)pyrazolo[1,5-a]pyrimidine-3-carboxamide], the “Cisplatin Sensitization Assay” value is “++ (Cisplatin sensitization value>0.02 μM but <0.2 μM)”.

`Cc1nc(O[C@@H]2CCN(C)C2)ccc1-c1ccncc1NC(=O)c1c(N)nn2cc(F)cnc12` [I-C-41, (R)-2-amino-6-fluoro-N-(2-methyl-6-((1-methylpyrrolidin-3-yl)oxy)-[3,4′-bipyridin]-3′-yl)pyrazolo[1,5-a]pyrimidine-3-carboxamide]: the “Cisplatin Sensitization Assay” value was “+++ (Cisplatin sensitization value of <0.02 μM)”.

Regarding `Nc1nn2cc(F)cnc2c1C(=O)Nc1cnccc1-c1ccnnc1` [I-C-26, 2-amino-6-fluoro-N-(4-(pyridazin-4-yl)pyridin-3-yl)pyrazolo[1,5-a]pyrimidine-3-carboxamide], the “Cisplatin Sensitization Assay” value was “++ (Cisplatin sensitization value>0.02 μM but <0.2 μM)”.

`CS(=O)(=O)C1CCN(c2c(F)cncc2NC(=O)c2c(N)nn3cc(F)cnc23)CC1` [I-N-165, 2-amino-6-fluoro-N-(5-fluoro-4-(4-(methylsulfonyl)piperidin-1-yl)pyridin-3-yl)pyrazolo[1,5-a]pyrimidine-3-carboxamide]: the “Cisplatin Sensitization Assay” value was “+++ (Cisplatin sensitization value of <0.02 μM)”.

On to `Nc1nn2cc(F)cnc2c1C(=O)Nc1cnccc1C1CCN(C(=O)C23CCN(CC2)CC3)CC1` [I-C-18, 2-amino-6-fluoro-N-(4-(1-(quinuclidine-4-carbonyl)piperidin-4-yl)pyridin-3-yl)pyrazolo[1,5-a]pyrimidine-3-carboxamide], for which the “Cisplatin Sensitization Assay” value was “+ (Cisplatin sensitization value>0.2 μM but <5 μM)”.

For `Nc1nn2cc(F)cnc2c1C(=O)Nc1cnccc1N1CCC(C(=O)N2CCC2)CC1` [I-G-77, 2-amino-N-(4-(4-(azetidine-1-carbonyl)piperidin-1-yl)pyridin-3-yl)-6-fluoropyrazolo[1,5-a]pyrimidine-3-carboxamide], the “Cisplatin Sensitization Assay” value is recorded as “+++ (Cisplatin sensitization value of <0.02 μM)”.

On to `COc1cc(Cl)ncc1NC(=O)c1c(N)nn2cc(CC#N)cnc12` [I-O-27, 2-amino-N-(6-chloro-4-methoxypyridin-3-yl)-6-(cyanomethyl)pyrazolo[1,5-a]pyrimidine-3-carboxamide], for which the “Cisplatin Sensitization Assay” value is “++ (Cisplatin sensitization value>0.02 μM but <0.2 μM)”.

On to `CN1CCC[C@H]1COc1ccncc1NC(=O)c1c(N)nn2cc(Cl)cnc12` [I-O-50, (S)-2-amino-6-chloro-N-(4-((1-methylpyrrolidin-2-yl)methoxy)pyridin-3-yl)pyrazolo[1,5-a]pyrimidine-3-carboxamide], for which the “Cisplatin Sensitization Assay” value is recorded as “+ (Cisplatin sensitization value>0.2 μM but <5 μM)”.

`COCCN1CCN(c2ccncc2NC(=O)c2c(N)nn3cc(Cl)cnc23)CC1` [I-N-60, 2-amino-6-chloro-N-(4-(4-(2-methoxyethyl)piperazin-1-yl)pyridin-3-yl)pyrazolo[1,5-a]pyrimidine-3-carboxamide]: the “Cisplatin Sensitization Assay” value is “+++ (Cisplatin sensitization value of <0.02 μM)”.

In the case of `Nc1nn2cc(F)cnc2c1C(=O)Nc1cncc(F)c1N1CCC(S(=O)(=O)N2CCOCC2)CC1` [I-N-155, 2-amino-6-fluoro-N-(5-fluoro-4-(4-(morpholinosulfonyl)piperidin-1-yl)pyridin-3-yl)pyrazolo[1,5-a]pyrimidine-3-carboxamide], the “Cisplatin Sensitization Assay” value was “+++ (Cisplatin sensitization value of <0.02 μM)”.

Take `N#CCc1cnc2c(C(=O)Nc3cnccc3OC3CCCOC3)c(N)nn2c1` (stereo not shown) [I-O-41, 2-amino-6-(cyanomethyl)-N-(4-((tetrahydro-2H-pyran-3-yl)oxy)pyridin-3-yl)pyrazolo[1,5-a]pyrimidine-3-carboxamide]: the “Cisplatin Sensitization Assay” value is on record as “+++ (Cisplatin sensitization value of <0.02 μM)”.

On to `Nc1nn2cc(F)cnc2c1C(=O)Nc1cnccc1N1CCC(C(=O)N2CC3(COC3)C2)CC1` [I-G-88, N-(4-(4-(2-oxa-6-azaspiro[3.3]heptane-6-carbonyl)piperidin-1-yl)pyridin-3-yl)-2-amino-6-fluoropyrazolo[1,5-a]pyrimidine-3-carboxamide], for which the “Cisplatin Sensitization Assay” value is “+++ (Cisplatin sensitization value of <0.02 μM)”.

In the case of `CN(C)CCOc1ccncc1NC(=O)c1c(N)nn2cc(CC#N)cnc12` [I-O-24, 2-amino-6-(cyanomethyl)-N-(4-(2-(dimethylamino)ethoxy)pyridin-3-yl)pyrazolo[1,5-a]pyrimidine-3-carboxamide], the “Cisplatin Sensitization Assay” value is given as “++ (Cisplatin sensitization value>0.02 μM but <0.2 μM)”.

For `Nc1nn2cc(Cl)cnc2c1C(=O)Nc1cnccc1N1CCC(N2CCn3cncc3C2)CC1` [I-N-101, 2-amino-6-chloro-N-(4-(4-(5,6-dihydroimidazo[1,5-a]pyrazin-7(8H)-yl)piperidin-1-yl)pyridin-3-yl)pyrazolo[1,5-a]pyrimidine-3-carboxamide], the “Cisplatin Sensitization Assay” value is “++ (Cisplatin sensitization value>0.02 μM but <0.2 μM)”.
